22 compounds from patent US10689354B2, “Aminoazole derivative” (Teijin Pharma Limited, priority 2015, dated 2020) can be followed below.

In assay [1] the target is T1, androgen receptor (AR-LBD) (Rattus norvegicus, UniProt P15207).
T1 construct: 5 μL of 2×AR-LBD/Fluoromone AL Red Complex contained in the kit; purchased Invitrogen
T1 sequence (P15207 651-882 limits assumed): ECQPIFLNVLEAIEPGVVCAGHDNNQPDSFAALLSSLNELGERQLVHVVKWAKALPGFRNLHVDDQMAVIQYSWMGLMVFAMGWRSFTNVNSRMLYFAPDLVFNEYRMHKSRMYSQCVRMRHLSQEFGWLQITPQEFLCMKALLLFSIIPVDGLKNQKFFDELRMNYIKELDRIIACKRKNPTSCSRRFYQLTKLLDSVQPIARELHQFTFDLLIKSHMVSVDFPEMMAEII
The experiment in a line: Evaluation of androgen receptor affinity (PolarScreen Androgen Receptor Competitor Assay Kit, Red; fluorescence polarization). The settings on record: 22° C. for 5 hours, relative to binding rate of 1 μM DHT, read-out: AR affinity (pEC50) (converted). A digest of the protocol:
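FP competition: compound + AR-LBD/Fluoromone AL Red tracer complex, 22° C, 5 h. Reference 1 μM DHT binding rate; pEC50 by 4-parameter fit.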

A further assay concerns the target T2, human androgen receptor (Homo sapiens, UniProt P10275).
T2 construct: expressed in transfected cells; host or cells: HEK293
T2 sequence (P10275 1-920): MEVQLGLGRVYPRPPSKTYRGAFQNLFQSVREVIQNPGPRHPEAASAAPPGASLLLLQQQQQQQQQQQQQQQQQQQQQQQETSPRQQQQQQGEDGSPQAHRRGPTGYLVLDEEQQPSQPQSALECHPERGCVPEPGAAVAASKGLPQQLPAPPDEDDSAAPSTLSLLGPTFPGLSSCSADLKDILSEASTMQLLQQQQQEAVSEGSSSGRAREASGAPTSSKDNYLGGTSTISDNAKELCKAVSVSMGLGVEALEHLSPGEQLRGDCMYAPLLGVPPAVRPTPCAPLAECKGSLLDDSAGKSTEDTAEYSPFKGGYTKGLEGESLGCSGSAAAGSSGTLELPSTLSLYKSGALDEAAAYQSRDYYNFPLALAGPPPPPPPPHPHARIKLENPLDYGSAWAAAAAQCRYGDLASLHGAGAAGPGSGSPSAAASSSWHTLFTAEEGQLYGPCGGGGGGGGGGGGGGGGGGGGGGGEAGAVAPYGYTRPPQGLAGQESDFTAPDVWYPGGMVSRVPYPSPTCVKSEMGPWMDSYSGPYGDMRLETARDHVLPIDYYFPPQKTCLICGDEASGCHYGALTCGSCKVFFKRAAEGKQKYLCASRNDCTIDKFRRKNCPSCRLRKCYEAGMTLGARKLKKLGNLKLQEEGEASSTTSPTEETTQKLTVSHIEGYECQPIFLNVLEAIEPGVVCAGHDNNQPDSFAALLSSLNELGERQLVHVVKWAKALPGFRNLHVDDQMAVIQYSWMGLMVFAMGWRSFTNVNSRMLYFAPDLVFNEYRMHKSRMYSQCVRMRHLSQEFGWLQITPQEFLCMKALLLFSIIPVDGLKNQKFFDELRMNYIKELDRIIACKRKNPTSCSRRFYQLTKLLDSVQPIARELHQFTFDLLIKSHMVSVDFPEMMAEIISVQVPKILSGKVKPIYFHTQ
The experiment in a line: Reporter assay of an androgen receptor responsive sequence (luciferase, transiently transfected HEK293 cells). The following applies: 24 hours incubation, relative to activity of 100 nM DHT, read-out: AR transcriptive activity (pEC50) (converted). The class given is cell-based. The method, boiled down:
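Agonism scored as pEC50, fitted by 4-parameter curve against the response to 100 nM DHT, from dual-luciferase readout after 24 h compound treatment. Cells were HEK293 co-transfected (3 h) with human AR expression vector, androgen-responsive firefly reporter and Renilla control, in charcoal-stripped serum.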

For `Cc1oc(N(CCc2ccc(Cl)cc2)Cc2ccc3ncsc3c2)nc1C(=O)NS(C)(=O)=O` [Compound 545, 2-[1,3-benzothiazol-6-ylmethyl-[2-(4-chlorophenyl)ethyl]amino]-5-methyl-N-methylsulfonyl-oxazole-4-carboxamide], the values for the EC50 (in assay [1]; at human androgen receptor) were 39.8 nM and 158 nM, respectively.
On the same counts, the results for `Cc1oc(N(Cc2ccc(F)cc2)c2ccc(C#N)cc2)nc1C(=O)NS(C)(=O)=O` [Compound 610, 2-[4-cyano-N-[(4-fluorophenyl)methyl]anilino]-5-methyl-N-methylsulfonyl-oxazole-4-carboxamide] are 100 nM and 2510 nM.
Turning to `Cc1sc(N(Cc2ccc(Cl)cc2)c2ccc(C(F)(F)F)nc2)nc1C(=O)NS(C)(=O)=O` [Compound 470, 2-[(4-chlorophenyl)methyl-[6-(trifluoromethyl)-3-pyridyl]amino]-5-methyl-N-methylsulfonyl-thiazole-4-carboxamide], the figures for the EC50 (in assay [1]; at human androgen receptor) were 126 nM and 158 nM, respectively.
For `CCS(=O)(=O)NC(=O)c1nc(N(CCC2CCCCC2)Cc2ccc(OC(F)(F)F)cc2)sc1C` [Compound 733, 2-[2-cyclohexylethyl-[[4-(trifluoromethoxy)phenyl]methyl]amino]-N-ethylsulfonyl-5-methyl-thiazole-4-carboxamide], the EC50 in assay [1] was 200 nM; on human androgen receptor, greater than 10000 nM.
On the same counts, the results for `Cc1sc(N(CCc2ccc(C#N)cc2)Cc2ccc(Cl)cc2)nc1C(=O)NS(=O)(=O)C1CC1` [Compound 714, 2-[(4-chlorophenyl)methyl-[2-(4-cyanophenyl)ethyl]amino]-N-cyclopropylsulfonyl-5-methyl-thiazole-4-carboxamide] are 79.4 nM and 1260 nM.
With `COc1c(F)ccc(CN(c2ccc(C#N)cc2)c2nc(C(=O)NS(C)(=O)=O)c(C)s2)c1F` [Compound 111, 2-[4-cyano-N-[(2,4-difluoro-3-methoxy-phenyl)methyl]anilino]-5-methyl-N-methylsulfonyl-thiazole-4-carboxamide], the EC50 in assay [1] was 50.1 nM; at human androgen receptor, 63.1 nM.
The matching figures for `CS(=O)(=O)NC(=O)c1nc(N(Cc2ccc(OC(F)F)cc2)c2ccc(C#N)cc2)sc1Br` [Example 256, 5-bromo-2-[4-cyano-N-[[4-(difluoromethoxy)phenyl]methyl]anilino]-N-methylsulfonyl-thiazole-4-carboxamide]: 50.1 nM and 50.1 nM.
The matching figures for `Cc1sc(N(Cc2ccc(OC(F)(F)F)cc2)c2ccc(C#N)cc2)nc1C(=O)NS(=O)(=O)Cc1cccnc1` [Compound 121, 2-[4-cyano-N-[[4-(trifluoromethoxy)phenyl]methyl]anilino]-5-methyl-N-(3-pyridylmethylsulfonyl)thiazole-4-carboxamide]: 25.1 nM and 50.1 nM.
Regarding `Cc1sc(N(Cc2cnc(C(F)(F)F)c(Cl)c2)c2ccc(C#N)cc2)nc1C(=O)NS(C)(=O)=O` [Compound 530, 2-[N-[[5-chloro-6-(trifluoromethyl)-3-pyridyl]methyl]-4-cyano-anilino]-5-methyl-N-methylsulfonyl-thiazole-4-carboxamide], the figures for the EC50 (in assay [1]; at human androgen receptor) were 50.1 nM and 501 nM, respectively.
As for `Cc1sc(N(Cc2cc3ccccc3cn2)c2ccc(C#N)cc2)nc1C(=O)NS(C)(=O)=O` [Compound 529, 2-[4-cyano-N-(3-isoquinolylmethyl)anilino]-5-methyl-N-methylsulfonyl-thiazole-4-carboxamide], the figures for the EC50 (in assay [1]; at human androgen receptor) were 398 nM and 316 nM, respectively.
On the same counts, the results for `CS(=O)(=O)NC(=O)c1nc(N(Cc2ccccc2)c2ccc(C#N)cc2)sc1C1CC1` [Compound 660, 2-(N-benzyl-4-cyano-anilino)-5-cyclopropyl-N-methylsulfonyl-thiazole-4-carboxamide] are 79.4 nM and greater than 10000 nM.
The matching figures for `Cc1sc(N(Cc2ccc(SC(F)(F)F)cc2)c2ccc(C#N)cc2)nc1C(=O)NS(C)(=O)=O` [Compound 113, 2-[4-cyano-N-[[4-(trifluoromethylsulfanyl)phenyl]methyl]anilino]-5-methyl-N-methylsulfonyl-thiazole-4-carboxamide]: 25.1 nM and 158 nM.
Take `Cc1sc(N(CC2COc3ccccc3C2)c2ccc(C#N)cc2)nc1C(=O)NS(C)(=O)=O` (centres unmarked) [Compound 510, 2-[N-(chroman-3-ylmethyl)-4-cyano-anilino]-5-methyl-N-methylsulfonyl-thiazole-4-carboxamide]: the EC50 is 126 nM in assay [1] and 1260 nM on human androgen receptor.
Regarding `Cc1sc(N(CCc2ccccc2F)Cc2ccccc2)nc1C(=O)NS(C)(=O)=O` [Compound 339, 2-[benzyl-[2-(2-fluorophenyl)ethyl]amino]-5-methyl-N-methylsulfonyl-thiazole-4-carboxamide], the EC50 in assay [1] is 39.8 nM; at human androgen receptor, 2000 nM.
The matching figures for `Cc1sc(N(Cc2cccc(C(F)F)c2)c2ccc(C#N)cc2)nc1C(=O)NS(C)(=O)=O` [Compound 450, 2-[4-cyano-N-[[3-(difluoromethyl)phenyl]methyl]anilino]-5-methyl-N-methylsulfonyl-thiazole-4-carboxamide]: 31.6 nM and 50.1 nM.
The matching figures for `Cc1sc(N(CCc2ccc(Cl)c(Cl)c2)Cc2ccccc2)nc1C(=O)NS(C)(=O)=O` [Compound 710, 2-[benzyl-[2-(3,4-dichlorophenyl)ethyl]amino]-5-methyl-N-methylsulfonyl-thiazole-4-carboxamide]: 50.1 nM and 398 nM.
On the same counts, the results for `Cc1sc(N(CCCC2CCCC2)c2ccc(C#N)cc2)nc1C(=O)NS(C)(=O)=O` [Compound 485, 2-[4-cyano-N-(3-cyclopentylpropyl)anilino]-5-methyl-N-methylsulfonyl-thiazole-4-carboxamide] are 20 nM and 126 nM.
On to `CS(=O)(=O)NC(=O)c1nc(N(Cc2cccc(OC(F)F)c2)c2ccc(C#N)cc2)sc1Br` [Example 255, 5-bromo-2-[4-cyano-N-[[3-(difluoromethoxy)phenyl]methyl]anilino]-N-methylsulfonyl-thiazole-4-carboxamide], for which the EC50 in assay [1] is 50.1 nM; at human androgen receptor, 79.4 nM.
As for `CCS(=O)(=O)NC(=O)c1nc(N(CCc2ccc(C#N)cc2)Cc2ccc(Cl)cc2)sc1C` [Compound 713, 2-[(4-chlorophenyl)methyl-[2-(4-cyanophenyl)ethyl]amino]-N-ethylsulfonyl-5-methyl-thiazole-4-carboxamide], the EC50 in assay [1] was 31.6 nM; on human androgen receptor it was 251 nM.
On the same counts, the results for `Cc1oc(N(CC[C@@H]2CCCC[C@H]2O)c2ccc(C#N)cc2)nc1C(=O)NS(C)(=O)=O` (racemic) [Compound 624, 2-[4-cyano-N-[2-[trans-2-hydroxycyclohexyl]ethyl]anilino]-5-methyl-N-methylsulfonyl-oxazole-4-carboxamide] are 794 nM and 7940 nM.
With `Cc1ccc(CN(c2ccc(C#N)cc2)c2nc(C(=O)NS(C)(=O)=O)c(C)s2)cc1` [Compound 17, 2-[4-cyano-N-(p-tolylmethyl)anilino]-5-methyl-N-methylsulfonyl-thiazole-4-carboxamide], the EC50 (in assay [1]; at human androgen receptor) was 25.1 nM in each case.
For `Cc1oc(N(CCc2ccc(Cl)cc2)Cc2ccc(C(F)(F)F)nc2)nc1C(=O)NS(C)(=O)=O` [Compound 551, 2-[2-(4-chlorophenyl)ethyl-[[6-(trifluoromethyl)-3-pyridyl]methyl]amino]-5-methyl-N-methylsulfonyl-oxazole-4-carboxamide], the values for the EC50 (in assay [1]; on human androgen receptor) were 39.8 nM and 501 nM, respectively.
